Marks after values point to notes of the source that are not given here.
Tests used:
rat mGlu2 receptor = target: T1, rat mGlu2 receptor (Rattus norvegicus, UniProt P31421); test: [3H]Compound A binding to membranes from CHO-dhfr− cells expressing the rat mGlu2 receptor; details: 20 nM [3H]Compound A, 40 μg membranes
T1 construct: host or cells: CHO-dhfr- cells
Experimental: (§1) Confluent cells were washed in ice-cold phosphate-buffered saline and stored at −20° C. until membrane preparation. After thawing, cells were suspended in 50 mM Tris-HCl, pH 7.4 and collected through centrifugation for 10 min at 23,500 g at 4° C. The cells were lysed in 10 mM hypotonic Tris-HCl, pH 7.4. After recentrifugation for 20 min at 30,000 g at 4° C., the pellet was homogenized with an Ultra Turrax homogenizer in 50 mM Tris-HCl, pH 7.4. Protein concentrations were measured by the Bio-Rad protein assay using bovine serum albumin as standard.
(§2) After thawing, the membranes were homogenized using an Ultra Turrax homogenizer and suspended in ice-cold binding buffer containing 50 mM Tris-HCl (pH 7.4), 1.2 mM MgCl2, 2 mM CaCl2. For [^3H]Compound A binding, 20 to 160 μg membrane protein and a final concentration of 20 nM [^3H]Compound A was used. As indicated in the results section, different blancs were used to define non-specific binding. Incubation time and temperature as well as filtration were as described for rat mGlu1a receptor CHO-dhfr^− membranes. Expression of rat mGlu2, -3, -5 and mGlu6 receptors was confirmed by specific binding of [^3H]LY341495 (mGlu2, -3 and -6) or [^3H]MPEP (mGlu5). For [^3H]LY341495 binding, 1 nM (mGlu2 and mGlu3) or 10 nM (mGlu6) [^3H]LY341495 was used. […] Assay mixtures were incubated for 30 min (mGlu2 and mGlu3) or 60 min (mGlu6) at 4° C. […]

rat mGlu3 receptor = target: T2, rat mGlu3 receptor (Rattus norvegicus, UniProt P31422); test: [3H]Compound A binding to membranes from CHO-dhfr− cells expressing the rat mGlu3 receptor; details: 20 nM [3H]Compound A, 40 μg membranes
T2 construct: host or cells: CHO-dhfr- cells
T2 sequence (P31422 23-879): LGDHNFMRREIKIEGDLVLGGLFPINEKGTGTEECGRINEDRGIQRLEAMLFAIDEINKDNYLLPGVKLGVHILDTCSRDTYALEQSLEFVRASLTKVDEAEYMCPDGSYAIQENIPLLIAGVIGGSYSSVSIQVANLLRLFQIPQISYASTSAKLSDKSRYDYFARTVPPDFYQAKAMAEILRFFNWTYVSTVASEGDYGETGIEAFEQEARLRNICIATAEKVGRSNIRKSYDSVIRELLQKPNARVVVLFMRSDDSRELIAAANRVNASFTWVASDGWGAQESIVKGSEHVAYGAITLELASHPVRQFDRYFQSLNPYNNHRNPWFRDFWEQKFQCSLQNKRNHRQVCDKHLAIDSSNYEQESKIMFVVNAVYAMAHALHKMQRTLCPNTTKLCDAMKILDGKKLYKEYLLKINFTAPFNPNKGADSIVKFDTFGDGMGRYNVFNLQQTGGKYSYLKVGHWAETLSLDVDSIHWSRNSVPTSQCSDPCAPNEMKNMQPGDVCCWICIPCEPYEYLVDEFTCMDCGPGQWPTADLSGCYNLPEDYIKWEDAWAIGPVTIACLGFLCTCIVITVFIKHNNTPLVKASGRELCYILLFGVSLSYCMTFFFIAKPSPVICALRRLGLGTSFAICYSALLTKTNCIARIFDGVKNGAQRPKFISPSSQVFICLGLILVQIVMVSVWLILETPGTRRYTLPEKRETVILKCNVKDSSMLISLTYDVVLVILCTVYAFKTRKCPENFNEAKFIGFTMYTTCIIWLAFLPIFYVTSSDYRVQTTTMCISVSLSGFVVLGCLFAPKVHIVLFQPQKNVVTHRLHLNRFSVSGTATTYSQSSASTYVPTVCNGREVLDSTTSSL
Experimental: as §1, §2

rat mGlu6 receptor = target: T3, rat mGlu6 receptor (Rattus norvegicus, UniProt P35349); test: [3H]Compound A binding to membranes from CHO-dhfr− cells expressing the rat mGlu6 receptor; details: 20 nM [3H]Compound A, 40 μg membranes; Compound 135 as blanc
T3 construct: host or cells: CHO-dhfr- cells
T3 sequence (P35349 24-871): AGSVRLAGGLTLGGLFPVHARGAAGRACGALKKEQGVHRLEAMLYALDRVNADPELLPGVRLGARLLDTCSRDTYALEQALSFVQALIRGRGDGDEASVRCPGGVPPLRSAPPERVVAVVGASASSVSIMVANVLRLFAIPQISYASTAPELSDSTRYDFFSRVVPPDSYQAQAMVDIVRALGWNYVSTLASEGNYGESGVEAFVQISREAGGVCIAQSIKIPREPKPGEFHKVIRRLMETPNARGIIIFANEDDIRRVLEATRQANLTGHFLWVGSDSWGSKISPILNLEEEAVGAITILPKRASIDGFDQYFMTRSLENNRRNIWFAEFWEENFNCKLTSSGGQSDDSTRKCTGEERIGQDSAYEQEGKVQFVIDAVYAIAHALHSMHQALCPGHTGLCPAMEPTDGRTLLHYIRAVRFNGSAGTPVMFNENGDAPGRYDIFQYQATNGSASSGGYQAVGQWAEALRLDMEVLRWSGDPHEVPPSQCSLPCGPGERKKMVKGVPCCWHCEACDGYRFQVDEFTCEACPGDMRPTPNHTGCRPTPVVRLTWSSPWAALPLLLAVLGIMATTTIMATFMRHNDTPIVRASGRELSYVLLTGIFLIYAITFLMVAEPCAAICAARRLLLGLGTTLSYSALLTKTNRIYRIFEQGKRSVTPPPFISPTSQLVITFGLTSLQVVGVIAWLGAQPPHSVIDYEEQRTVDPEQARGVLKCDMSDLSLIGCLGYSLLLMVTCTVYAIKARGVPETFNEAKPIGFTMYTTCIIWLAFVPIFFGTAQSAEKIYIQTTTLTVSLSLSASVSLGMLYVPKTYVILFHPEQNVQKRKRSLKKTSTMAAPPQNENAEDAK
Experimental: as §1, §2

mGlu1 receptor = mGlu1 receptor (Rattus norvegicus, UniProt P23385); test: [3H]Compound A binding to rat brain membranes (cortex, hippocampus, striatum, cerebellum)
Experimental: Tissue preparation. Male Wistar rats (˜200 g) were sacrificed by decapitation. The brains were rapidly removed and cortex, hippocampus, striatum and cerebellum were immediately dissected. The fresh tissue was homogenized with an Ultra Turrax in 20 volumes of 50 mM Tris-HCl, pH 7.4 and tissue was centrifuged at 23,500 g for 10 min. After homogenisation using a DUAL homogeniser, membranes were washed twice by centrifugation at 23,500 g for 10 min. The final pellet was suspended in 10 volumes of 50 mM Tris-HCl, pH 7.4 and frozen at −80° C.
In vitro binding assay. After thawing, membranes from rat cortex, cerebellum, striatum and hippocampus were rehomogenized using a DUAL and suspended in ice-cold binding buffer containing 50 mM Tris-HCl, 1.2 mM MgCl2, 2 mM CaCl2, pH 7.4. The binding assay was carried out in a total volume of 0.5 ml containing 2.5 nM [^3H]Compound A and a membrane aliquot corresponding to 40 μg for cerebellar membranes, 60 μg for hippocampal membranes, 80 μg for striatal membranes or 150 μg for cortical membranes. […] After incubation for 30 min at 4° C., the labelled membranes were washed and harvested by rapid vacuum filtration over Whatman GF/C glass-fibre filters using a 40-well filtration manifold and radioactivity collected on the filters was counted as above.
Data analysis was performed using the GraphPad Prism program (GraphPad Prism Software, Inc., San Diego, Calif.). Saturation binding experiments were analysed using a non-linear regression analysis. Inhibition curves were fitted using non-linear regression analysis fitting the one-site competition equation: Y=Bottom+((Top−Bottom)/1+10^X-LogIC50). Ki values were calculated using the Cheng-Prusoff equation: Ki=IC50/[1+([C]/KD)] where C is the concentration of radioligand and KD is the dissociation constant of the radioligand (Cheng and Prusoff, Biochem. Pharmacol. 22, 3099-3108, 1973). The observed on (kob) and off (koff) rate were calculated from association-dissociation curves using the one-phase-exponential association and decay equations in the Prism program, respectively. kon was calculated by subtracting koff from kob and dividing by the radioligand concentration. The two-tailed Student's t-test was used for statistical evaluation of the binding data: * p<0.05, ** p<0.01 and *** p<0.001. The Dunnett's t-test following a 2-way analysis of variance (with as factors compound concentration and experiment) were used to analyse the data from the IP experiments.

[1] = membranes from rat cerebellum, mean ± SD, 3 experiments
[2] = membranes from rat cortex, mean ± SD, 3 experiments
[3] = membranes from rat hippocampus, mean ± SD, 3 experiments
[4] = membranes from rat striatum, mean ± SD, 3 experiments

T1 sequence (P31421 19-872): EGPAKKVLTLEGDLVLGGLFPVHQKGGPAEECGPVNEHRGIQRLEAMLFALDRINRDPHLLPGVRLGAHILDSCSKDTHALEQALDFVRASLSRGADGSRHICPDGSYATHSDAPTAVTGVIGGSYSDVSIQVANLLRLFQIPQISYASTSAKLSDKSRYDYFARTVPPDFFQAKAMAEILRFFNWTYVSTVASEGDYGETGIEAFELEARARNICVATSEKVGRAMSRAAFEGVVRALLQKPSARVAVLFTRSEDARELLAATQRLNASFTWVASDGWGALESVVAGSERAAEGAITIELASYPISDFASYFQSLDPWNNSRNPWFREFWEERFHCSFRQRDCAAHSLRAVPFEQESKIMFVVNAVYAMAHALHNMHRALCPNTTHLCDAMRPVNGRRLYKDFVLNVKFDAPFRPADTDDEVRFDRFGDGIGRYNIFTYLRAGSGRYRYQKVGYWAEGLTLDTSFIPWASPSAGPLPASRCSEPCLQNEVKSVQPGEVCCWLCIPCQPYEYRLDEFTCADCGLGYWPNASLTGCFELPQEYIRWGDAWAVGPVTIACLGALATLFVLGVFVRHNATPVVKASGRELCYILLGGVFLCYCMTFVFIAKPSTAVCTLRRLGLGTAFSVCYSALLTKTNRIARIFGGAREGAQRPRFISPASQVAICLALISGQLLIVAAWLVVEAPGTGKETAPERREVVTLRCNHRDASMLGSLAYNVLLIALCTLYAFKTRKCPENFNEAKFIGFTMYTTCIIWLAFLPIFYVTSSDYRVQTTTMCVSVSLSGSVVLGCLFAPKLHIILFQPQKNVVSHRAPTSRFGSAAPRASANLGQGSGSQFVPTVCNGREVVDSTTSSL

[3H]c1ccc(CC(=O)c2ccc3nc4c(cc3c2)CCCO4)cc1 [[^3H]Compound A] was tested, and the “SB (fmoles/mg protein), mGlu2” value (rat mGlu2 receptor; Compound 135 as blanc) was 0 fmoles/mg protein, the “SB (fmoles/mg protein), mGlu2” value (rat mGlu2 receptor; various blancs: 1 mM glutamate) was 34^a fmoles/mg protein and the “SB (fmoles/mg protein), mGlu3” value (rat mGlu3 receptor; Compound 135 as blanc) was 0 fmoles/mg protein. For the same molecule, the “SB (fmoles/mg protein), mGlu3” value (rat mGlu3 receptor; various blancs: 1 mM glutamate) was 0^a fmoles/mg protein, the “SB (fmoles/mg protein), mGlu6” value (rat mGlu6 receptor) was 0 fmoles/mg protein and the Kd (mGlu1 receptor; all structures (cortex, hippocampus, striatum, cerebellum)) was about 1 nM. For the same molecule, the “non-specific binding compared to total binding” value (mGlu1 receptor; cerebellum) was 10%, the “non-specific binding compared to total binding” value (mGlu1 receptor; cortex) was 25% and the “number of sites labelled as % of the number found in the cerebellum” value (mGlu1 receptor; cortex) was 11%. For the same molecule, the “non-specific binding compared to total binding” value (mGlu1 receptor; hippocampus) was 30%, the “number of sites labelled as % of the number found in the cerebellum” value (mGlu1 receptor; hippocampus) was “about 16%” and the Bmax (mGlu1 receptor; [1]) was 4302 ± 2042 fmoles/mg protein. For the same molecule, the Kd (mGlu1 receptor; [1]) was 0.99 ± 0.36 nM, the Bmax (mGlu1 receptor; [2]) was 471 ± 68 fmoles/mg protein and the Kd (mGlu1 receptor; [2]) was 1.04 ± 0.4 nM. The Bmax (mGlu1 receptor; [3]) was 688 ± 125 fmoles/mg protein, the Kd (mGlu1 receptor; [3]) was 0.72 ± 0.22 nM and the Bmax (mGlu1 receptor; [4]) was 741 ± 48 fmoles/mg protein. For the same molecule, the Kd (mGlu1 receptor; [4]) was 0.84 ± 0.23 nM, the “non-specific binding compared to total binding” value (mGlu1 receptor; striatum) was 25% and the “number of sites labelled as % of the number found in the cerebellum” value (mGlu1 receptor; striatum) was “about 16%”.
